# Assay results published in the supplement of paper PMC10307832.
# Assays:
# Assay in all cases: relative viability (nuclei count vs DMSO), 5 days (fraction); higher = more cells survive
# [1] = tested on: SK-LU-1
# Summary of the method: (§1)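 Lung cancer cell lines, seeded in 1536-well plates, were treated the following day by pin tool with a single drug or with five library-drug doses (not always all listed) in √10 steps on top of a fixed anchor-drug dose. Cells were fixed and nuclei stained in one step after 5 days, and nuclei were counted. Relative viability is the nuclei count for treated wells divided by that for vehicle wells, reported as medians of duplicate plates.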
# [2] = tested on: CAL-12T
# Summary of the method: as §1
# [3] = tested on: HOP-62
# Summary of the method: as §1
# [4] = tested on: NCI-H1395
# Summary of the method: as §1
# [5] = tested on: HCC-827
# Summary of the method: as §1
# [6] = tested on: NCI-H1792
# Summary of the method: as §1
# [7] = tested on: HCC-366
# Summary of the method: as §1
# [8] = tested on: HARA
# Summary of the method: as §1
# [9] = tested on: EMC-BAC-2
# Summary of the method: as §1
# [10] = tested on: NCI-H460
# Summary of the method: as §1
# [11] = tested on: NCI-H2228
# Summary of the method: as §1
# [12] = tested on: SW 1573
# Summary of the method: as §1
# [13] = tested on: NCI-H727
# Summary of the method: as §1
# [14] = tested on: NCI-H1755
# Summary of the method: as §1
# [15] = tested on: NCI-H2009
# Summary of the method: as §1
# [16] = tested on: LCLC-103H
# Summary of the method: as §1
# [17] = tested on: A-427
# Summary of the method: as §1
# [18] = tested on: NCI-H522
# Summary of the method: as §1
# [19] = tested on: COR-L 105
# Summary of the method: as §1
# [20] = tested on: NCI-H1915
# Summary of the method: as §1
# [21] = tested on: NCI-H23
# Summary of the method: as §1
# [22] = tested on: NCI-H1437
# Summary of the method: as §1
structure (smiles),measurement,setting,value
CCN(CC)CCCCNc1ncc2cc(-c3cc(OC)cc(OC)c3)c(NC(=O)NC(C)(C)C)nc2n1 + CC(=O)c1c(C)c2cnc(Nc3ccc(N4CCNCC4)cn3)nc2n(C2CCCC2)c1=O [Palbociclib] (partner 0.5 µM),relative viability,[1]; first compound 0.01 µM,0.457
same,relative viability,[1]; first compound 0.03162 µM,0.387
same,relative viability,[1]; first compound 0.1 µM,0.359
same,relative viability,[1]; first compound 0.3162 µM,0.434
same,relative viability,[1]; first compound 1 µM,0.309
same,relative viability,[2]; first compound 0.01 µM,0.411
same,relative viability,[2]; first compound 0.03162 µM,0.456
same,relative viability,[2]; first compound 0.1 µM,0.518
same,relative viability,[2]; first compound 0.3162 µM,0.419
same,relative viability,[2]; first compound 1 µM,0.408
same,relative viability,[3]; first compound 0.01 µM,0.463
same,relative viability,[3]; first compound 0.03162 µM,0.455
same,relative viability,[3]; first compound 0.1 µM,0.481
same,relative viability,[3]; first compound 0.3162 µM,0.425
same,relative viability,[3]; first compound 1 µM,0.45
same,relative viability,[4]; first compound 0.01 µM,0.637
same,relative viability,[4]; first compound 0.03162 µM,0.59
same,relative viability,[4]; first compound 0.1 µM,0.661
same,relative viability,[4]; first compound 0.3162 µM,0.546
same,relative viability,[4]; first compound 1 µM,0.448
same,relative viability,[5]; first compound 0.01 µM,0.49
same,relative viability,[5]; first compound 0.03162 µM,0.473
same,relative viability,[5]; first compound 0.1 µM,0.507
same,relative viability,[5]; first compound 0.3162 µM,0.644
same,relative viability,[5]; first compound 1 µM,0.454
same,relative viability,[6]; first compound 0.01 µM,0.66
same,relative viability,[6]; first compound 0.03162 µM,0.623
same,relative viability,[6]; first compound 0.1 µM,0.568
same,relative viability,[6]; first compound 0.3162 µM,0.562
same,relative viability,[6]; first compound 1 µM,0.639
same,relative viability,[7]; first compound 0.01 µM,0.364
same,relative viability,[7]; first compound 0.03162 µM,0.406
same,relative viability,[7]; first compound 0.1 µM,0.504
same,relative viability,[7]; first compound 0.3162 µM,0.438
same,relative viability,[7]; first compound 1 µM,0.441
same,relative viability,[8]; first compound 0.01 µM,0.228
same,relative viability,[8]; first compound 0.03162 µM,0.243
same,relative viability,[8]; first compound 0.1 µM,0.306
same,relative viability,[8]; first compound 0.3162 µM,0.223
same,relative viability,[8]; first compound 1 µM,0.269
same,relative viability,[9]; first compound 0.03162 µM,0.501
same,relative viability,[9]; first compound 0.1 µM,0.525
same,relative viability,[9]; first compound 0.3162 µM,0.536
same,relative viability,[9]; first compound 1 µM,0.527
same,relative viability,[10]; first compound 0.01 µM,0.147
same,relative viability,[10]; first compound 0.03162 µM,0.222
same,relative viability,[10]; first compound 0.1 µM,0.112
same,relative viability,[10]; first compound 0.3162 µM,0.165
same,relative viability,[10]; first compound 1 µM,0.147
same,relative viability,[11]; first compound 0.01 µM,1.23
same,relative viability,[11]; first compound 0.03162 µM,0.561
same,relative viability,[11]; first compound 0.1 µM,0.434
same,relative viability,[11]; first compound 0.3162 µM,0.862
same,relative viability,[11]; first compound 1 µM,0.513
same,relative viability,[12]; first compound 0.01 µM,0.377
same,relative viability,[12]; first compound 0.03162 µM,0.407
same,relative viability,[12]; first compound 0.1 µM,0.519
same,relative viability,[12]; first compound 0.3162 µM,0.398
same,relative viability,[12]; first compound 1 µM,0.331
same,relative viability,[13]; first compound 0.01 µM,0.581
same,relative viability,[13]; first compound 0.03162 µM,0.635
same,relative viability,[13]; first compound 0.1 µM,0.769
same,relative viability,[13]; first compound 0.3162 µM,0.697
same,relative viability,[13]; first compound 1 µM,0.59
same,relative viability,[14]; first compound 0.01 µM,0.474
same,relative viability,[14]; first compound 0.03162 µM,0.448
same,relative viability,[14]; first compound 0.1 µM,0.462
same,relative viability,[14]; first compound 0.3162 µM,0.472
same,relative viability,[14]; first compound 1 µM,0.459
same,relative viability,[15]; first compound 0.01 µM,0.211
same,relative viability,[15]; first compound 0.03162 µM,0.22
same,relative viability,[15]; first compound 0.1 µM,0.234
same,relative viability,[15]; first compound 0.3162 µM,0.196
same,relative viability,[15]; first compound 1 µM,0.161
same,relative viability,[16]; first compound 0.01 µM,0.473
same,relative viability,[16]; first compound 0.03162 µM,0.423
same,relative viability,[16]; first compound 0.1 µM,0.457
same,relative viability,[16]; first compound 0.3162 µM,0.48
same,relative viability,[16]; first compound 1 µM,0.466
same,relative viability,[17]; first compound 0.01 µM,0.58
same,relative viability,[17]; first compound 0.03162 µM,0.475
same,relative viability,[17]; first compound 0.1 µM,0.59
same,relative viability,[17]; first compound 0.3162 µM,0.501
same,relative viability,[17]; first compound 1 µM,0.398
same,relative viability,[18]; first compound 0.01 µM,1.04
same,relative viability,[18]; first compound 0.03162 µM,1.01
same,relative viability,[18]; first compound 0.1 µM,0.921
same,relative viability,[18]; first compound 0.3162 µM,1.12
same,relative viability,[18]; first compound 1 µM,0.935
same,relative viability,[19]; first compound 0.01 µM,0.398
same,relative viability,[19]; first compound 0.03162 µM,0.393
same,relative viability,[19]; first compound 0.1 µM,0.427
same,relative viability,[19]; first compound 0.3162 µM,0.423
same,relative viability,[19]; first compound 1 µM,0.405
same,relative viability,[20]; first compound 0.01 µM,0.655
same,relative viability,[20]; first compound 0.03162 µM,0.528
same,relative viability,[20]; first compound 0.1 µM,0.557
same,relative viability,[20]; first compound 0.3162 µM,0.546
same,relative viability,[20]; first compound 1 µM,0.496
same,relative viability,[21]; first compound 0.01 µM,0.534
same,relative viability,[21]; first compound 0.03162 µM,0.451
same,relative viability,[21]; first compound 0.1 µM,0.598
same,relative viability,[21]; first compound 0.3162 µM,0.547
same,relative viability,[21]; first compound 1 µM,0.466
same,relative viability,[22]; first compound 0.01 µM,0.319
same,relative viability,[22]; first compound 0.03162 µM,0.331
same,relative viability,[22]; first compound 0.1 µM,0.326
same,relative viability,[22]; first compound 0.3162 µM,0.303
same,relative viability,[22]; first compound 1 µM,0.285
COc1nc(C)cnc1NS(=O)(=O)c1cccnc1-c1ccc(-c2nnco2)cc1 [Zibotentan] + CCNC(=O)c1noc(-c2cc(C(C)C)c(O)cc2O)c1-c1ccc(CN2CCOCC2)cc1 [Luminespib] (partner 0.01 µM),relative viability,[1]; first compound 0.08 µM,0.236
same,relative viability,[1]; first compound 0.253 µM,0.171
same,relative viability,[1]; first compound 0.8 µM,0.213
same,relative viability,[1]; first compound 2.53 µM,0.194
same,relative viability,[2]; first compound 0.08 µM,0.598
same,relative viability,[2]; first compound 0.253 µM,0.123
same,relative viability,[2]; first compound 0.8 µM,0.415
same,relative viability,[2]; first compound 2.53 µM,0.418
same,relative viability,[3]; first compound 0.08 µM,0.911
same,relative viability,[3]; first compound 0.253 µM,0.869
same,relative viability,[3]; first compound 0.8 µM,0.906
same,relative viability,[3]; first compound 2.53 µM,0.956
same,relative viability,[4]; first compound 0.08 µM,0.725
same,relative viability,[4]; first compound 0.253 µM,0.724
same,relative viability,[4]; first compound 0.8 µM,0.649
same,relative viability,[4]; first compound 2.53 µM,0.754
same,relative viability,[5]; first compound 0.08 µM,0.574
same,relative viability,[5]; first compound 0.253 µM,0.501
same,relative viability,[5]; first compound 0.8 µM,0.442
same,relative viability,[5]; first compound 2.53 µM,0.774
same,relative viability,[6]; first compound 0.08 µM,0.417
same,relative viability,[6]; first compound 0.253 µM,0.362
same,relative viability,[6]; first compound 0.8 µM,0.469
same,relative viability,[6]; first compound 2.53 µM,0.346
same,relative viability,[8]; first compound 0.08 µM,0.731
same,relative viability,[8]; first compound 0.253 µM,0.705
same,relative viability,[8]; first compound 0.8 µM,0.636
same,relative viability,[8]; first compound 2.53 µM,0.836
same,relative viability,[9]; first compound 0.08 µM,1.3
same,relative viability,[9]; first compound 0.8 µM,1.13
same,relative viability,[9]; first compound 2.53 µM,1.22
same,relative viability,[10]; first compound 0.08 µM,0.036
same,relative viability,[10]; first compound 0.253 µM,0.0258
same,relative viability,[10]; first compound 0.8 µM,0.0276
same,relative viability,[10]; first compound 2.53 µM,0.0332
same,relative viability,[11]; first compound 0.08 µM,0.154
same,relative viability,[11]; first compound 0.253 µM,0.134
same,relative viability,[11]; first compound 0.8 µM,0.157
same,relative viability,[11]; first compound 2.53 µM,0.191
same,relative viability,[12]; first compound 0.08 µM,0.341
same,relative viability,[12]; first compound 0.8 µM,0.348
same,relative viability,[12]; first compound 2.53 µM,0.269
same,relative viability,[13]; first compound 0.08 µM,0.289
same,relative viability,[13]; first compound 0.253 µM,0.316
same,relative viability,[13]; first compound 0.8 µM,0.83
same,relative viability,[13]; first compound 2.53 µM,0.325
same,relative viability,[14]; first compound 0.08 µM,0.338
same,relative viability,[14]; first compound 0.253 µM,0.558
same,relative viability,[14]; first compound 0.8 µM,0.489
same,relative viability,[14]; first compound 2.53 µM,0.252
same,relative viability,[15]; first compound 0.08 µM,0.959
same,relative viability,[15]; first compound 0.253 µM,1.03
same,relative viability,[15]; first compound 0.8 µM,1.08
same,relative viability,[15]; first compound 2.53 µM,1
same,relative viability,[16]; first compound 0.08 µM,0.913
same,relative viability,[16]; first compound 0.253 µM,0.682
same,relative viability,[16]; first compound 0.8 µM,0.982
same,relative viability,[16]; first compound 2.53 µM,0.927
same,relative viability,[17]; first compound 0.08 µM,1.16
same,relative viability,[17]; first compound 0.253 µM,0.857
same,relative viability,[17]; first compound 0.8 µM,0.998
same,relative viability,[17]; first compound 2.53 µM,0.911
same,relative viability,[18]; first compound 0.08 µM,1.26
same,relative viability,[18]; first compound 0.253 µM,1.02
same,relative viability,[18]; first compound 0.8 µM,1.13
same,relative viability,[18]; first compound 2.53 µM,1.09
same,relative viability,[19]; first compound 0.08 µM,0.938
same,relative viability,[19]; first compound 0.253 µM,0.693
same,relative viability,[19]; first compound 0.8 µM,0.891
same,relative viability,[19]; first compound 2.53 µM,0.74
same,relative viability,[20]; first compound 0.08 µM,0.939
same,relative viability,[20]; first compound 0.253 µM,0.873
same,relative viability,[20]; first compound 0.8 µM,0.754
same,relative viability,[20]; first compound 2.53 µM,0.809
same,relative viability,[21]; first compound 0.08 µM,0.199
same,relative viability,[21]; first compound 0.8 µM,0.231
same,relative viability,[21]; first compound 2.53 µM,0.186
same,relative viability,[22]; first compound 0.08 µM,1.15
same,relative viability,[22]; first compound 0.253 µM,0.967
same,relative viability,[22]; first compound 0.8 µM,1.12
same,relative viability,[22]; first compound 2.53 µM,1.15
